Laboratory results taken from the NIST ThermoML archive (doi:10.1021/je050031f).

How the values were obtained:
[1] = 100.8 kPa, Liquid
[2] = refractive index (Na D-line) (dimensionless); settings: 101.33 kPa, Liquid, Standard Abbe refractometry
[3] = xn = mol fraction of the nth substance listed; settings: 100.8 kPa, Liquid
[4] = refractive index (Na D-line) (dimensionless); xn = mol fraction of the nth substance listed; settings: 100.8 kPa, Liquid, Standard Abbe refractometry

CC(C)OC(C)C [diisopropyl ether]
Settings	mass density, 288.15 K [kg/m3]	mass density, 298.15 K [kg/m3]	mass density, 308.15 K [kg/m3]	refractive index, 288.15 K	refractive index, 298.15 K	refractive index, 308.15 K	viscosity, 288.15 K [mPa·s]	viscosity, 298.15 K [mPa·s]	viscosity, 308.15 K [mPa·s]
[1]	729	718.6	707.9	–	–	–	0.347	0.313	0.283
[2]	–	–	–	1.37126	1.36537	1.35954	–	–	–

CC(C)OC(C)C [diisopropyl ether] + CC1CCCCC1
[3], Capillary tube (Ostwald / Ubbelohde) method, x1 = 1
Settings	viscosity [mPa·s]
288.15 K	0.347
298.15 K	0.313
308.15 K	0.283

x1 = 1
Settings	mass density, 288.15 K [kg/m3]	mass density, 298.15 K [kg/m3]	mass density, 308.15 K [kg/m3]	refractive index, 288.15 K	refractive index, 298.15 K	refractive index, 308.15 K
[3]	729	718.6	707.9	–	–	–
[4]	–	–	–	1.37126	1.36537	1.35954

CCO [ethanol] + CC(C)OC(C)C
x2 = 0
Settings	mass density, 288.15 K [kg/m3]	mass density, 298.15 K [kg/m3]	mass density, 308.15 K [kg/m3]	refractive index, 288.15 K	refractive index, 298.15 K	refractive index, 308.15 K	viscosity, 288.15 K [mPa·s]	viscosity, 298.15 K [mPa·s]	viscosity, 308.15 K [mPa·s]
[3]	793.6	785.2	776.5	–	–	–	1.31	1.085	0.906
[4]	–	–	–	1.36351	1.35935	1.35504	–	–	–

CCO [ethanol] + CC1CCCCC1
x1 = 1
Settings	mass density, 288.15 K [kg/m3]	mass density, 298.15 K [kg/m3]	mass density, 308.15 K [kg/m3]	refractive index, 288.15 K	refractive index, 298.15 K	refractive index, 308.15 K	viscosity, 288.15 K [mPa·s]	viscosity, 298.15 K [mPa·s]	viscosity, 308.15 K [mPa·s]
[3]	793.6	785.2	776.5	–	–	–	1.31	1.085	0.906
[4]	–	–	–	1.36351	1.35935	1.35504	–	–	–

CCO [ethanol]
Settings	mass density, 288.15 K [kg/m3]	mass density, 298.15 K [kg/m3]	mass density, 308.15 K [kg/m3]	refractive index, 288.15 K	refractive index, 298.15 K	refractive index, 308.15 K	viscosity, 288.15 K [mPa·s]	viscosity, 298.15 K [mPa·s]	viscosity, 308.15 K [mPa·s]
[1]	793.6	785.2	776.5	–	–	–	1.31	1.085	0.906
[2]	–	–	–	1.36351	1.35935	1.35504	–	–	–

CC1CCCCC1 [methylcyclohexane]
Settings	mass density, 288.15 K [kg/m3]	mass density, 298.15 K [kg/m3]	mass density, 308.15 K [kg/m3]	refractive index, 288.15 K	refractive index, 298.15 K	refractive index, 308.15 K	viscosity, 288.15 K [mPa·s]	viscosity, 298.15 K [mPa·s]	viscosity, 308.15 K [mPa·s]
[1]	773.4	765	756.3	–	–	–	0.784	0.685	0.6
[2]	–	–	–	1.42578	1.42053	1.41537	–	–	–
